Measurements from patent US8486939B2, “Pyrimidinyl and 1,3,5-triazinyl benzimidazoles and their use in cancer therapy” (Pathway Therapeutics Inc., priority 2009, dated 2013).
Counter-ions that a name gives are not always drawn.

Tests used:
p110α/p85 = p110α/p85 (Homo sapiens, UniProt P42336); assay: Inhibition of isolated enzyme (lipid kinase assay, [γ33P]ATP, TLC); format: biochemical; conditions: recombinant enzyme, 100 μM ATP, 1 hr room temperature, average of two experiments
Protocol: (§1) Compounds were evaluated for their ability to inhibit Class I PI 3-kinase enzymes p110δ/p85, p110α/p85, and p110β/p85. Reaction mixtures comprising 0.1 μg of a recombinant enzyme, 10 μg of L-α-phosphatidylinositol, and 2× Lipid Kinase Buffer (40 mM Tris-HCl, pH 7.4, 200 mM NaCl, 1 mM EDTA), which contains either DMSO only as a control or the test compound in DMSO (the final DMSO concentration is 1%), were activated by the addition of an ATP mix (5 mM MgCl2, 100 μM ATP, and 0.1 μL [γ^33P]ATP). Reactions were incubated at room temperature for 1 hr, and then stopped by the addition of 1M HCl. The lipids were then extracted using a two step procedure. Firstly, 200 μL of chloroform/methanol (1:1) was added, the biphasic reactions mixed and centrifuged briefly, and the inorganic phase was removed and discarded. Following this, 80 μL of methanol:HCl (1:1) was added and the same procedure followed. The organic phase (70 μL) was then transferred to a clean 1.6 mL tube and the reactions were dried using a Speedvac, with no heating, for […]. The reactions were spotted onto TLC plates (Merck Ltd) and developed for 1 hr in propanol-1:2 M acetic acid (13:7). The TLC plates were then dried at room temperature and quantified using a phosphorimager (StormImager, Amersham). Nine compound concentrations were used for each test compound to determine its IC50 value. Each experiment was performed twice and the average IC50 value is used herein.

p110δ/p85 = p110δ/p85 (Homo sapiens, UniProt O00329); assay: as above; format: biochemical; conditions: recombinant enzyme, 100 μM ATP, 1 hr room temperature, average of two experiments
p110δ/p85, sequence (O00329 whole entry, species assumed): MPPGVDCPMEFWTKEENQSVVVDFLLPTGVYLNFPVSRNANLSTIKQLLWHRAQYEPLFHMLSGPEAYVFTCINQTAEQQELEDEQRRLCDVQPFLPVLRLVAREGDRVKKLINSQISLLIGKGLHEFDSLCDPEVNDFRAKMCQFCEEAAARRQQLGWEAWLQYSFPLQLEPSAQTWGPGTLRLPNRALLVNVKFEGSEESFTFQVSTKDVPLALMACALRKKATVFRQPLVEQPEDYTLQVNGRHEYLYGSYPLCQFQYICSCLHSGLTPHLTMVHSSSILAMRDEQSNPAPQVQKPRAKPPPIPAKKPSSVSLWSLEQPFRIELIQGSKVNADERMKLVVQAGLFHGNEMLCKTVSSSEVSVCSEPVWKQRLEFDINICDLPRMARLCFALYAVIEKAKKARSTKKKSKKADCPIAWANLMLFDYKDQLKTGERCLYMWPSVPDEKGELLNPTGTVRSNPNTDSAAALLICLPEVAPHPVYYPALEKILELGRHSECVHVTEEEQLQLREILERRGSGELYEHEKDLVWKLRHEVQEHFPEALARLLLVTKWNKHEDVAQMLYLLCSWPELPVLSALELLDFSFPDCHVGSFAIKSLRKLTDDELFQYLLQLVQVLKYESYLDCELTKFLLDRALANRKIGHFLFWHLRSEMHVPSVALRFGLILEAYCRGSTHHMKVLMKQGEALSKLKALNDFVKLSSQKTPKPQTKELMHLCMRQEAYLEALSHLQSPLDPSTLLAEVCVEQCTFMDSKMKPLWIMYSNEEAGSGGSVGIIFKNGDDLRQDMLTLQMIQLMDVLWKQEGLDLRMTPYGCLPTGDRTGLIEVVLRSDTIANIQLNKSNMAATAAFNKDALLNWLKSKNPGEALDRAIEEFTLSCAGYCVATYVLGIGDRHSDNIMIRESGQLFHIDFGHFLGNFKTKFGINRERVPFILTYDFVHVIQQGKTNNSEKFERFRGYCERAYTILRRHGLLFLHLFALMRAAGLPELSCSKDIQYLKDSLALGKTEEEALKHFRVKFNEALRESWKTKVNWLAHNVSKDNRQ
p110δ/p85, sequence (P27986 whole entry partner, species assumed): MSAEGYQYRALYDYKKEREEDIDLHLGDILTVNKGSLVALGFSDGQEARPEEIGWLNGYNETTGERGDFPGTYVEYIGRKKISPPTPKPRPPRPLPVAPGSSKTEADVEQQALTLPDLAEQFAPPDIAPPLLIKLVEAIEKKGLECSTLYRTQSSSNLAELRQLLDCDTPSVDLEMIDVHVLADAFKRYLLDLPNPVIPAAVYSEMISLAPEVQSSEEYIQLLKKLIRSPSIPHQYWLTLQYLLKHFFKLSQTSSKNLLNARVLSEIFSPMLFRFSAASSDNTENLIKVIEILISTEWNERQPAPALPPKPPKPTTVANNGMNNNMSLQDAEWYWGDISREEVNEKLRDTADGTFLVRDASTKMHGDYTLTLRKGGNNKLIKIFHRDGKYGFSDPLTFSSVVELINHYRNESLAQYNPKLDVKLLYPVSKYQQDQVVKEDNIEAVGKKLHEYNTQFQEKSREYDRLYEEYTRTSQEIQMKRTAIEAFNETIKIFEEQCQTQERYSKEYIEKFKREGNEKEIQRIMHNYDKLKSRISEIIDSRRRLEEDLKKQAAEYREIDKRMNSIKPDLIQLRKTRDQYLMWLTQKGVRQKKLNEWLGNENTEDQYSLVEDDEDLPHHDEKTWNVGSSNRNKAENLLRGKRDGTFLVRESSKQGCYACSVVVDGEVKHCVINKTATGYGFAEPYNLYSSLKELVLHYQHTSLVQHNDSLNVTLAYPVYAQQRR
Protocol: as §1

p110α/p85, sequence (P42336 whole entry): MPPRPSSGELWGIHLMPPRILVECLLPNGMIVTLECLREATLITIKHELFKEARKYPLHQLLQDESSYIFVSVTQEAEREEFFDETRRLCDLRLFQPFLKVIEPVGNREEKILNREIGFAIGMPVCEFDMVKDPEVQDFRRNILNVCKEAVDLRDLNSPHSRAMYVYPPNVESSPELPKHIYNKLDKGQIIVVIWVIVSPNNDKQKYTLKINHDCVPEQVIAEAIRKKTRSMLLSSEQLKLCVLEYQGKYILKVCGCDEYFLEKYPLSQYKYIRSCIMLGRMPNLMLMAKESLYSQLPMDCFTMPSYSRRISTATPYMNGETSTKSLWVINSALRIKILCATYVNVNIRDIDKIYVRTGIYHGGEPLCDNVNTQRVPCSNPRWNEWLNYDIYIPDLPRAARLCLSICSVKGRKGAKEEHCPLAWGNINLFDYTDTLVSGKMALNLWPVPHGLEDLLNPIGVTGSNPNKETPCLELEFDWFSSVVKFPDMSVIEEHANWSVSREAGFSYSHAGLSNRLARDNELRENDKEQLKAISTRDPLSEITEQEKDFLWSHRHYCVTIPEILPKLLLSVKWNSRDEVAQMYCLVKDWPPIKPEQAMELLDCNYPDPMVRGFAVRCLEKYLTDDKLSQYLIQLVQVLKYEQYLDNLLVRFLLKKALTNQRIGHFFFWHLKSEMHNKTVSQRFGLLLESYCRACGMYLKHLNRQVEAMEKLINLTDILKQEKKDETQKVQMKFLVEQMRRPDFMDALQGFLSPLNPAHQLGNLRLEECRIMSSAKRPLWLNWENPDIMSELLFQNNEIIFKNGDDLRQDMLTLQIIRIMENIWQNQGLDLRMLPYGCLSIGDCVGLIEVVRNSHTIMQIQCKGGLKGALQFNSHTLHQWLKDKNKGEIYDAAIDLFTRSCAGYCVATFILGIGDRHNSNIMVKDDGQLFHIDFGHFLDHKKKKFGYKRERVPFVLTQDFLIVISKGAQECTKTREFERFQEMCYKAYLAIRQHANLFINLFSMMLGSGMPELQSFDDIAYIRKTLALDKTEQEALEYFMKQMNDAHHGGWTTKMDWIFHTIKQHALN
p110α/p85, sequence (P27986 whole entry partner): as the sequence (P27986 whole entry partner, species assumed) above

Row | melting point | IC50 (p110α/p85) [nM] | IC50 (p110δ/p85) [nM] | SMILES
1 | 279 to 282 °C |  |  | COc1cccc2c1nc(C(F)F)n2-c1nc(Nc2cccnc2)nc(N2CCOCC2)n1 (as salt: methanesulfonate) [Example 2, 4-[2-(difluoromethyl)-4-methoxy-1H-benzimidazol-1-yl]-6-(4-morpholinyl)-N-(3-pyridinyl)-1,3,5-triazin-2-amine]
2 | 202 to 205 °C | < 100 | < 100 | CN(c1cncnc1)c1nc(N2CCOCC2)nc(-n2c(C(F)F)nc3ccccc32)n1 [Example 44, 4-[2-(difluoromethyl)-1H-benzimidazol-1-yl]-N-methyl-6-(4-morpholinyl)-N-(5-pyrimidinyl)-1,3,5-triazin-2-amine]
3 |  | < 100 | < 100 | COc1cc(N)cc2c1nc(C(F)F)n2-c1nc(-c2ccn(C)n2)nc(N2CCOCC2)n1 [Example 65, 2-(Difluoromethyl)-4-methoxy-1-[4-(1-methyl-1H-pyrazol-3-yl)-6-(4-morpholinyl)-1,3,5-triazin-2-yl]-1H-benzimidazol-6-ylamine]
4 | 272 to 275 °C |  |  | COc1cccc2c1nc(C(F)F)n2-c1nc(N2CCOCC2)nc(-n2ccnc2)n1 [Example 67, 2-(Difluoromethyl)-1-[4-(1H-imidazol-1-yl)-6-(4-morpholinyl)-1,3,5-triazin-2-yl]-4-methoxy-1H-benzimidazole]
5 | 248 to 251 °C | < 100 | < 100 | COc1cccc2c1nc(C(F)F)n2-c1nc(N2CCOCC2)c2ncn(-c3cncnc3)c2n1 [Example 60, 2-[2-(difluoromethyl)-4-methoxy-1H-benzimidazol-1-yl]-6-(4-morpholinyl)-9-(5-pyrimidinyl)-9H-purine]
6 | 96 to 98 °C | < 100 | < 100 | COc1cccc2c1nc(C(F)F)n2-c1nc(Nc2cnc(N(C)CCN(C)C)nc2)nc(N2CCOCC2)n1 [Example 42, N^5-[4-[2-(difluoromethyl)-4-methoxy-1H-benzimidazol-1-yl]-6-(4-morpholinyl)-1,3,5-triazin-2-yl]-N^2-[2-(dimethylamino)ethyl]-N^2-methyl-2,5-pyrimidinediamine]
7 | 172 to 179 °C | 100 to 1000 | 100 to 1000 | FC(F)c1nc2ccccc2n1-c1nc(-c2cccnc2)cc(N2CCOCC2)n1 [Example 51, 2-(difluoromethyl)-1-[4-(4-morpholinyl)-6-(3-pyridinyl)-2-pyrimidinyl]-1H-benzimidazole]
8 | 163 to 166 °C |  |  | FC(F)c1nc2ccccc2n1-c1nc(Nc2cncnc2)nc(N2CCOCC2)n1 (as salt: methanesulfonate) [Example 35, 4-[2-(difluoromethyl)-1H-benzimidazol-1-yl]-6-(4-morpholinyl)-N-(5-pyrimidinyl)-1,3,5-triazin-2-amine]
9 |  | < 100 | < 100 | COc1cc(N)cc2c1nc(C(F)F)n2-c1nc(N2CCOCC2)nc(-n2cccn2)n1 [Example 64, 2-(Difluoromethyl)-4-methoxy-1-[4-(4-morpholinyl)-6-(1H-pyrazol-1-yl)-1,3,5-triazin-2-yl]-1H-benzimidazol-6-ylamine]
10 | 246 °C (dec.) |  |  | COc1cc(N)cc2c1nc(C(F)F)n2-c1nc(-c2cccnc2)cc(N2CCOCC2)n1 (as salt: methanesulfonate) [Example 68, 2-(Difluoromethyl)-4-methoxy-1-[4-(4-morpholinyl)-6-(3-pyridinyl)-2-pyrimidinyl]-1H-benzimidazol-6-ylamine]
11 | 281 to 285 °C |  |  | Nc1ncc(-c2cc(N3CCOCC3)nc(-n3c(C(F)F)nc4ccccc43)n2)cn1 [Example 58, 2-[2-(difluoromethyl)-1H-benzimidazol-1-yl]-6-(4-morpholinyl)-4,5′-bipyrimidine-2′-amine]
12 | 289 to 291 °C |  |  | COc1cccc2c1nc(C(F)F)n2-c1nc(-c2cn[nH]c2)nc(N2CCOCC2)n1 [Example 50, 2-(Difluoromethyl)-4-methoxy-1-[4-(4-morpholinyl)-6-(1H-pyrazol-4-yl)-1,3,5-triazin-2-yl]-1H-benzimidazole]
13 | 208 to 210 °C | < 100 | < 100 | COc1cccc2c1nc(C(F)F)n2-c1nc(-c2cccnc2)cc(N2CCOCC2)n1 [Example 52, 2-(difluoromethyl)-4-methoxy-1-[4-(4-morpholinyl)-6-(3-pyridinyl)-2-pyrimidinyl]-1H-benzimidazole]
14 | 238 to 241 °C | < 100 | 100 to 1000 | COc1ncc(-c2cc(N3CCOCC3)nc(-n3c(C(F)F)nc4c(OC)cccc43)n2)cn1 [Example 57, 2-[2-(difluoromethyl)-4-methoxy-1H-benzimidazol-1-yl]-6-(4-morpholinyl)-2′-methoxy-4,5′-bipyrimidine]
15 |  | < 100 | < 100 | COc1cc(N)cc2c1nc(C(F)F)n2-c1nc(-c2cn[nH]c2)nc(N2CCOCC2)n1 [Example 66, 2-(Difluoromethyl)-4-methoxy-1-[4-(4-morpholinyl)-6-(1H-pyrazol-4-yl)-1,3,5-triazin-2-yl]-1H-benzimidazol-6-ylamine]
16 | 259 to 261 °C | < 100 | < 100 | COc1cccc2c1nc(C(F)F)n2-c1nc(-c2ccc(N)nc2)nc(N2CCOCC2)n1 [Example 49, 5-[4-[2-(difluoromethyl)-4-methoxy-1H-benzimidazol-1-yl]-6-(4-morpholinyl)-1,3,5-triazin-2-yl]-2-pyridinamine]
17 | > 300 °C |  |  | COc1cc(N)cc2c1nc(C(F)F)n2-c1nc(-c2cn[nH]c2)nc(N2CCOCC2)n1 (as salt: methanesulfonate) [Example 66, 2-(Difluoromethyl)-4-methoxy-1-[4-(4-morpholinyl)-6-(1H-pyrazol-4-yl)-1,3,5-triazin-2-yl]-1H-benzimidazol-6-ylamine]
18 | 208 to 210 °C | < 100 | < 100 | COc1cccc2c1nc(C(F)F)n2-c1nc(-c2cccnc2)nc(N2CCOCC2)n1 [Example 48, 2-(difluoromethyl)-4-methoxy-1-[4-(4-morpholinyl)-6-(3-pyridinyl)-1,3,5-triazin-2-yl]-1H-benzimidazole]
19 | 206 to 209 °C |  |  | COc1cccc2c1nc(C(F)F)n2-c1nc(N2CCOCC2)nc2c1ncn2-c1cccnc1 [Example 61, 6-[2-(Difluoromethyl)-4-methoxy-1H-benzimidazol-1-yl]-2-(4-morpholinyl)-9-(3-pyridinyl)-9H-purine]
20 | 222 to 224 °C | < 100 | 100 to 1000 | COc1cccc2c1nc(C(F)F)n2-c1nc(-c2cncnc2)cc(N2CCOCC2)n1 [Example 56, 2-[2-(difluoromethyl)-4-methoxy-1H-benzimidazol-1-yl]-6-(4-morpholinyl)-4,5′-bipyrimidine]
21 | 238 to 240 °C |  |  | COc1cccc2c1nc(C(F)F)n2-c1nc(N2CCOCC2)nc2c1ncn2-c1cncnc1 [Example 62, 6-[2-(Difluoromethyl)-4-methoxy-1H-benzimidazol-1-yl]-2-(4-morpholinyl)-9-(5-pyrimidinyl)-9H-purine]
22 | > 300 °C |  |  | COc1cc(N)cc2c1nc(C(F)F)n2-c1nc(-c2ccn(C)n2)nc(N2CCOCC2)n1 (as salt: methanesulfonate) [Example 65, 2-(Difluoromethyl)-4-methoxy-1-[4-(1-methyl-1H-pyrazol-3-yl)-6-(4-morpholinyl)-1,3,5-triazin-2-yl]-1H-benzimidazol-6-ylamine]
23 | 224 to 226 °C |  |  | COc1ccc(-c2cc(N3CCOCC3)nc(-n3c(C(F)F)nc4ccccc43)n2)cn1 [Example 53]
24 |  | < 100 | < 100 | COc1cc(N)cc2c1nc(C(F)F)n2-c1nc(-c2cccnc2)cc(N2CCOCC2)n1 [Example 68, 2-(Difluoromethyl)-4-methoxy-1-[4-(4-morpholinyl)-6-(3-pyridinyl)-2-pyrimidinyl]-1H-benzimidazol-6-ylamine]
25 | 214 to 217 °C | < 100 | < 100 | COc1cccc2c1nc(C(F)F)n2-c1nc(N2CCOCC2)nc(N(C)c2cncnc2)n1 [Example 45, 4-[2-(difluoromethyl)-4-methoxy-1H-benzimidazol-1-yl]-N-methyl-6-(4-morpholinyl)-N-(5-pyrimidinyl)-1,3,5-triazin-2-amine]
26 | 229 to 231 °C |  |  | COc1cccc2c1nc(C(F)F)n2-c1nc(N2CCOCC2)c2ncn(-c3cccnc3)c2n1 [Example 59, 2-[2-(difluoromethyl)-4-methoxy-1H-benzimidazol-1-yl]-6-(4-morpholinyl)-9-(3-pyridinyl)-9H-purine]
27 | > 300 °C |  |  | COc1cc(N)cc2c1nc(C(F)F)n2-c1nc(N2CCOCC2)nc(-n2cccn2)n1 (as salt: methanesulfonate) [Example 64, 2-(Difluoromethyl)-4-methoxy-1-[4-(4-morpholinyl)-6-(1H-pyrazol-1-yl)-1,3,5-triazin-2-yl]-1H-benzimidazol-6-ylamine]
